This is an account of results in paper PMC12130451 (Scientific Reports, 2025).

One assay deals with AChE (Electrophorus electricus, UniProt O42275). Kind of assay: Enzyme kinetic study. Format: biochemical, electric eel.
The target of assay [1] is acetylcholinesterase (AChE, E.C. 3.1.1.7, Type V-S) (Electrophorus electricus, UniProt O42275). As to the kind of experiment: AChE inhibition, modified Ellman method. Format: biochemical, electric eel. As to conditions: read-out: % Inhibition at 50 µM, AChE, Mean ± SE. On the technique in general: Ellman's reagent forms a yellow product with free thiols.
Sequence of acetylcholinesterase (AChE, E.C. 3.1.1.7, Type V-S) (O42275 24-633): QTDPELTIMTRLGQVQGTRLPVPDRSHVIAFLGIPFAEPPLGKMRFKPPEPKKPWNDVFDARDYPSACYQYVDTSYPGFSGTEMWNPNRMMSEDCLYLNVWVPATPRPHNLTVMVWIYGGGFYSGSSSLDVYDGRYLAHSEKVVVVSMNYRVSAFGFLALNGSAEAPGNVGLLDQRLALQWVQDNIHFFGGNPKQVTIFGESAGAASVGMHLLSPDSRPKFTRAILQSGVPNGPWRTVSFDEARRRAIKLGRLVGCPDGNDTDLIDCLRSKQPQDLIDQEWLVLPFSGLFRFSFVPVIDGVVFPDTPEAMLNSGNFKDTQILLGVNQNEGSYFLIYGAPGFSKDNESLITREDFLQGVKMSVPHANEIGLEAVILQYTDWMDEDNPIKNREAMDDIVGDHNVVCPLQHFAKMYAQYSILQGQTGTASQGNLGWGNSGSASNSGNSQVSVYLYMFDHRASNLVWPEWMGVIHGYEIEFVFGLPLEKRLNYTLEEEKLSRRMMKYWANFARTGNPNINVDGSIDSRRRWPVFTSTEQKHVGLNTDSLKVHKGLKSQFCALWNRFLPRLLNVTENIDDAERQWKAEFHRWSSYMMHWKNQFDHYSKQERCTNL

Sequence of AChE (O42275 24-633): as above

The Ki is the equilibrium dissociation constant of an inhibitor or competing ligand from its target. Read a high Ki as lower affinity. For `CC(C)(C)OC(=O)NC1CCCN(C(=O)/C=C/c2ccccc2Cl)C1` (stereo not shown) [5b, tert-butyl (E)-(1-(3-(2-chlorophenyl)acryloyl)piperidin-3-yl)carbamate], the inhibition constant Ki on AChE amounted to 10 µM. Further, on AChE (AChE, 1/Vmax vs inhibitor concentration), the “secondary inhibition constant (Kis)” value came to 36.16 µM. Further, the type of inhibition entry on AChE (AChE, Lineweaver-Burk plot) is reported as “mix-type inhibition”.

As usually defined, the inhibition is the change of the read-out against control, counted positive when it falls. With `COc1ccc(OC)c(/C=C/C(=O)N2CCCC(NC(=O)OC(C)(C)C)C2)c1` (stereo not shown) [5o, tert-butyl (E)-(1-(3-(2,5-dimethoxyphenyl)acryloyl)piperidin-3-yl)carbamate], in assay [1], the inhibition at 50 µM stood at 44.1%.
